Test system: 233499-124-R-J3-PDC spheroids with HUVEC/MSC, viability
Test: Anticancer human tumor 233499-124-R-J3-PDC patient-derived colon adenocarcinoma cell line growth inhibition [PI3K]
Conditions: for IC50: curve of first compound; for viability, T/C: stronger effect = lower value
Method in brief: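 Tumor cells were combined with HUVEC and MSCs into spheroids, then dosed with PI3K-inhibitor combinations over half-log ranges capped near clinical Cmax or 10 microM.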

[1] = second compound 0.0316 µM, first compound 0.0316 µM
[2] = second compound 0.0316 µM, first compound 0.1 µM
[3] = second compound 0.1 µM, first compound 0.0316 µM
[4] = second compound 0.1 µM, first compound 0.1 µM
[5] = second compound 0.316 µM, first compound 0.0316 µM
[6] = second compound 0.316 µM, first compound 0.1 µM
[7] = second compound 1 µM, first compound 0.0316 µM
[8] = second compound 1 µM, first compound 0.1 µM
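Note: spheroids exposed to agents for seven days before readout.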
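Throughout, for viability, T/C: percent viability relative to DMSO vehicle control taken as 100%.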

CC(C)n1nc(-c2ccc3oc(N)nc3c2)c2c(N)ncnc21 + Cc1nc(NC(=O)N2CCCC2C(N)=O)sc1-c1ccnc(C(C)(C)C(F)(F)F)c1
IC50 (second compound 0.0316 µM): > 0.1 µM | IC50 (second compound 0.1 µM): 0.0859 µM | IC50 (second compound 0.316 µM): > 0.1 µM | IC50 (second compound 1 µM): 0.0375 µM | IC50 (second compound 3.16 µM): 0.00581 µM | IC50 (second compound 10 µM): < 0.000316 µM | viability, T/C (second compound 0.0316 µM, first compound 0.000316 µM): 103% | viability, T/C (second compound 0.0316 µM, first compound 0.001 µM): 90.9% | viability, T/C (second compound 0.0316 µM, first compound 0.00316 µM): 103% | viability, T/C (second compound 0.0316 µM, first compound 0.01 µM): 64.7% | viability, T/C [1]: 92.6% | viability, T/C [2]: 55.2% | viability, T/C (second compound 0.1 µM, first compound 0.000316 µM): 99.4% | viability, T/C (second compound 0.1 µM, first compound 0.001 µM): 92.4% | viability, T/C (second compound 0.1 µM, first compound 0.00316 µM): 54.8% | viability, T/C (second compound 0.1 µM, first compound 0.01 µM): 86% | viability, T/C [3]: 84% | viability, T/C [4]: 45.1% | viability, T/C (second compound 0.316 µM, first compound 0.000316 µM): 89.9% | viability, T/C (second compound 0.316 µM, first compound 0.001 µM): 81% | viability, T/C (second compound 0.316 µM, first compound 0.00316 µM): 90.1% | viability, T/C (second compound 0.316 µM, first compound 0.01 µM): 79.1% | viability, T/C [5]: 67.7% | viability, T/C [6]: 53.9% | viability, T/C (second compound 1 µM, first compound 0.000316 µM): 68% | viability, T/C (second compound 1 µM, first compound 0.001 µM): 71.8% | viability, T/C (second compound 1 µM, first compound 0.00316 µM): 82.1% | viability, T/C (second compound 1 µM, first compound 0.01 µM): 62.4% | viability, T/C [7]: 55.3% | viability, T/C [8]: 25.2% | viability, T/C (second compound 3.16 µM, first compound 0.000316 µM): 61.2% | viability, T/C (second compound 3.16 µM, first compound 0.001 µM): 50.6% | viability, T/C (second compound 3.16 µM, first compound 0.00316 µM): 73% | viability, T/C (second compound 3.16 µM, first compound 0.01 µM): 39.7% | viability, T/C (second compound 3.16 µM, first compound 0.0316 µM): 43.7% | viability, T/C (second compound 3.16 µM, first compound 0.1 µM): 30.7% | viability, T/C (second compound 10 µM, first compound 0.000316 µM): 43.7% | viability, T/C (second compound 10 µM, first compound 0.001 µM): 26.4% | viability, T/C (second compound 10 µM, first compound 0.00316 µM): 29.7% | viability, T/C (second compound 10 µM, first compound 0.01 µM): 26.3% | viability, T/C (second compound 10 µM, first compound 0.0316 µM): 24.5% | viability, T/C (second compound 10 µM, first compound 0.1 µM): 6.69%

CCCS(=O)(=O)Nc1ccc(F)c(C(=O)c2c[nH]c3ncc(-c4ccc(Cl)cc4)cc23)c1F + COc1c(OCCCN2CCOCC2)ccc2c3n(c(=NC(=O)c4cnc(N)nc4)nc12)CCN3
IC50 (second compound 0.00316 µM): 5 µM | IC50 (second compound 0.01 µM): 5.78 µM | IC50 (second compound 0.0316 µM): 5.03 µM | IC50 (second compound 0.1 µM): 3.41 µM | IC50 (second compound 0.316 µM): < 0.0316 µM | IC50 (second compound 1 µM): < 0.0316 µM | viability, T/C (second compound 0.00316 µM, first compound 0.0316 µM): 84% | viability, T/C (second compound 0.00316 µM, first compound 0.1 µM): 87.8% | viability, T/C (second compound 0.00316 µM, first compound 0.316 µM): 101% | viability, T/C (second compound 0.00316 µM, first compound 1 µM): 94.1% | viability, T/C (second compound 0.00316 µM, first compound 3.16 µM): 79.6% | viability, T/C (second compound 0.00316 µM, first compound 10 µM): 5.08% | viability, T/C (second compound 0.01 µM, first compound 0.0316 µM): 88.4% | viability, T/C (second compound 0.01 µM, first compound 0.1 µM): 93.8% | viability, T/C (second compound 0.01 µM, first compound 0.316 µM): 88.9% | viability, T/C (second compound 0.01 µM, first compound 1 µM): 83% | viability, T/C (second compound 0.01 µM, first compound 3.16 µM): 90.1% | viability, T/C (second compound 0.01 µM, first compound 10 µM): 14.7% | viability, T/C [1]: 89.7% | viability, T/C [2]: 78.3% | viability, T/C (second compound 0.0316 µM, first compound 0.316 µM): 84.2% | viability, T/C (second compound 0.0316 µM, first compound 1 µM): 74.5% | viability, T/C (second compound 0.0316 µM, first compound 3.16 µM): 77.6% | viability, T/C (second compound 0.0316 µM, first compound 10 µM): 9.06% | viability, T/C [3]: 50.2% | viability, T/C [4]: 56% | viability, T/C (second compound 0.1 µM, first compound 0.316 µM): 54.5% | viability, T/C (second compound 0.1 µM, first compound 1 µM): 51.5% | viability, T/C (second compound 0.1 µM, first compound 3.16 µM): 52.7% | viability, T/C (second compound 0.1 µM, first compound 10 µM): 12.5% | viability, T/C [5]: 33.7% | viability, T/C [6]: 35.8% | viability, T/C (second compound 0.316 µM, first compound 0.316 µM): 38.2% | viability, T/C (second compound 0.316 µM, first compound 1 µM): 27.2% | viability, T/C (second compound 0.316 µM, first compound 3.16 µM): 23.6% | viability, T/C (second compound 0.316 µM, first compound 10 µM): 2.75% | viability, T/C [7]: 10.5% | viability, T/C [8]: 9.36% | viability, T/C (second compound 1 µM, first compound 0.316 µM): 6.83% | viability, T/C (second compound 1 µM, first compound 1 µM): 18.9% | viability, T/C (second compound 1 µM, first compound 3.16 µM): 8.57% | viability, T/C (second compound 1 µM, first compound 10 µM): 1.66%
